In PubChem BioAssay (NCI):
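Where inhibition never reached the appropriate level, the endpoint shown equals the highest concentration tested. Otherwise, values were interpolated linearly from a five-concentration, 48-hour dose response in 96-well plates. GI50 marks 50% less growth. At the TGI there is no net growth.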

How the values were obtained:
Test in all cases: NCI anticancer screen, dose series, 48 h
[1] = system: DU-145 prostate
[2] = system: HCT-116 colon
[3] = system: HL-60(TB) leukemia
[4] = system: MCF7 breast
[5] = system: NCI/ADR-RES ovarian
[6] = system: OVCAR-3 ovarian
[7] = system: SK-MEL-5 melanoma
[8] = system: SNB-75 CNS
[9] = system: T-47D breast
[10] = system: BT-549 breast

Compound	TGI [1] [µM]	TGI [2] [µM]	TGI [3] [µM]	TGI [4] [µM]	GI50 [5] [µM]	TGI [5] [µM]	TGI [6] [µM]	TGI [7] [µM]	GI50 [8] [µM]	TGI [8] [µM]	TGI [9] [µM]	TGI [10] [µM]
CC(=O)c1cnc2oc3ccc(O)cc3c2c1-c1ccccc1	> 100	> 100	> 100	> 100	19.6	75	82.6	> 100	2.57	22	80.4	–
O=C(c1ccncc1)C1C(=O)c2ccccc2C1C1(O)c2ccccc2CC1C(O)c1ccncc1 (stereo not given)	–	> 100	–	> 100	–	> 100	–	> 100	–	> 100	> 100	> 100
CC(=O)OC(Cn1cncn1)(Cn1cncn1)c1ccc(Cl)cc1Cl	> 100	–	> 100	> 100	–	> 100	> 100	> 100	–	> 100	> 100	> 100
Cc1c2c(OCC3CCCCO3)nn(C)c(=O)c2c(C)n1-c1ccccc1 (stereo not given)	36.9	31.6	–	30.3	–	50.7	33.3	29.1	–	32	70.3	38.2
COC(=O)C1(Cc2ccc3c(c2)CCC3)Cc2ccccc2C1	> 100	> 100	42.4	> 100	–	> 100	> 100	–	–	> 100	> 100	> 100
CCCCCCCCCc1nn2c(Cc3ccccc3)nnc2s1	51.4	31.9	–	73.6	–	32.7	37	30.1	–	65.4	97.5	33.6
CCOC(=O)C#Cc1ccccc1	> 100	17.7	36.5	75.2	–	> 100	45.7	17.4	–	–	> 100	79.5
NS(=O)(=O)c1cccc(NC(=S)NC(=O)Nc2ccc(Cl)c(Cl)c2)c1	97.9	31.4	–	37.1	–	36.1	–	30.8	–	54.9	67.6	32.1
CCOC(=O)c1cn2c(n1)sc1cc(Cl)cc(Cl)c12	> 100	> 100	–	> 100	–	> 100	> 100	> 100	–	> 100	> 100	> 100
CN(C)CCNC(=O)c1cccc2nc(-c3ccccc3)oc12	–	> 100	96.2	28.2	–	99.6	> 100	59.6	–	> 100	–	–
CCOC(=O)c1nnsc1NN	> 100	> 100	> 100	> 100	–	> 100	> 100	> 100	–	> 100	–	> 100
COC(=O)[C@H](Cc1ccccc1)NC(=O)CCCCCCC(=O)NO	38.5	27	> 100	> 100	–	> 100	34.9	28.6	–	–	8.88	> 100
